# Assay results published in patent US6713265B1 (Synaptic Pharmaceutical Corporation, priority 1999, dated 2004).
# Tests used:
# [1] = molecular target: 5HT1a (Homo sapiens, UniProt P08908); experiment: Binding at cloned human 5HT1a receptor
# [2] = molecular target: T1, α2c (Homo sapiens, UniProt P18825); experiment: Binding at cloned human α2c adrenergic receptor; settings: cloned human receptor
# T1 sequence (P18825 1-462): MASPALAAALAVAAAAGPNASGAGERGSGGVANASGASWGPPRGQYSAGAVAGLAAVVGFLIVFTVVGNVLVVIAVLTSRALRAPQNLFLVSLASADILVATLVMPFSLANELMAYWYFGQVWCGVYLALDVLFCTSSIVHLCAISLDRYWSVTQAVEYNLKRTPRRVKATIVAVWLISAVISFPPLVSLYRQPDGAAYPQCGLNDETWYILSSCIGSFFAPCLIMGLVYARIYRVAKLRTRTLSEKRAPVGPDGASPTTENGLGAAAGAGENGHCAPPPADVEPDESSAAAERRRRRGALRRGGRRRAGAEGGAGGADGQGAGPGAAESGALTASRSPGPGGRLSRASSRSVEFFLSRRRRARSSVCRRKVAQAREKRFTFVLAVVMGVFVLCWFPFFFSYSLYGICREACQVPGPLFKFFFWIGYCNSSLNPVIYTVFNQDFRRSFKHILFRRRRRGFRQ
# [3] = molecular target: T2, D3 (Homo sapiens, UniProt P35462); experiment: Binding at cloned human dopamine D3 receptor
# T2 construct: expressed in transfected cells; host or cells: COS-7
# [4] = system: NPY-induced feeding behavior; experiment: NPY-induced food intake in satiated rats; format: in vivo, rat; settings: compound 30 mg/kg i.p. then 300 pmole NPY i.c.v., 4 hours, mean ± S.E.M.
# Description: For these determinations food intake may be measured in normal satiated rats after intracerebroventricular application (i.c.v.) of NPY in the presence or absence of the test compound. Male Sprague Dawley rats (Ciba-Geigy AG, Sisseln, Switzerland) weighing between 180 g and 220 g are used for all experiments. The rats are individually housed in stainless steel cages and maintained on an 11:13 h light-dark cycle (lights off at 18:00 h) at a controlled temperature of 21-23° C. at all times. Water and food (NAFAG lab chow pellets NAFAG, Gossau, Switzerland) are available ad libidum.
# Rats under pentobarbital anesthesia are stereotaxically implanted with a stainless steel guide cannula targeted at the right lateral ventricle. Stereotaxic coordinates, with the incisor bar set −2.0 mm below interaural line, are: −0.8 mm anterior and +1.3 mm lateral to bregma. The guide cannula is placed on the dura. Injection cannulas extend the guide cannulas −3.8 mm ventrally to the skull surface. Animals are allowed at least 4 days of recovery postoperatively before being used in the experiments. Cannula placement is checked postoperatively by testing all rats for their drinking response to a 50. ng intracerebroventricular (i.c.v.) injection of angiotensin II. Only rats which drink at least 2.5 ml of water within 30 min. after angiotensin II injection are used in the feeding studies.
# All injections are made in the morning 2 hours after light onset. Peptides are injected in artificial cerebrospinal fluid (ACSF) in a volume of 5 μl. ACSF contains: NaCl 124 mM, KCl 3.75 mM, CaCl2 2.5 mM, MgSO4 2.0 mM, KH2PO4 0.22 mM, NaHCO3 26 mM and glucose 10 mM. Porcine-NPY (p-NPY) are dissolved in artificial cerebrospinal fluid (ACS). For i.c.v. injection the test compounds are preferably dissolved in DMSO/water (10%, v/v). The vehicle used for intraperitoneal (i.p.), subcutaneous (s.c.) or oral (p.o.) delivery of compounds is preferably water, physiological saline or DMSO/water (10% v/v), or cremophor/water (20% v/v), respectively.
# Animals which are treated with both test compounds and porcine-NPY are treated first with the test compound.
# Food intake may be measured by placing preweighed pellets into the cages at the time of NPY injection. Pellets are then removed from the cage subsequently at each selected time point and replaced with a new set of preweighed pellets. The food intake of animals treated with test compound may be calculated as a percentage of the food intake of control animals i.e., animals treated with vehicle. Alternatively, food intake for each group of animals subjected to a particular experimental condition may be expressed as the mean±S.E.M. Statistical analysis is performed by analysis of variance using the Student-Newman-Keuls test.
# Food intake is reported as the mean±S.E.M. intake for a group of animals.
# T2 sequence (P35462 whole entry): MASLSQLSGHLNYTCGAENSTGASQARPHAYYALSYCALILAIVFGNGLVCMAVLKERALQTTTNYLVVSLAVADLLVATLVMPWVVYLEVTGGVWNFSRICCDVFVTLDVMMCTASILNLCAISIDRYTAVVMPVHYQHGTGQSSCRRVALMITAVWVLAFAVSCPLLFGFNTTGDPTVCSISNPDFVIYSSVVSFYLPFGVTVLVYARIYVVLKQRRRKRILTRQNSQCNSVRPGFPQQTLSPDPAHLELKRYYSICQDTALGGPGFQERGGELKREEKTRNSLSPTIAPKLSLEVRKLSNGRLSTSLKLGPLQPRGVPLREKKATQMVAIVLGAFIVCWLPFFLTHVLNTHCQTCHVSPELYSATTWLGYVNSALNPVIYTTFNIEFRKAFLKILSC
# 5HT1a, sequence (P08908 whole entry): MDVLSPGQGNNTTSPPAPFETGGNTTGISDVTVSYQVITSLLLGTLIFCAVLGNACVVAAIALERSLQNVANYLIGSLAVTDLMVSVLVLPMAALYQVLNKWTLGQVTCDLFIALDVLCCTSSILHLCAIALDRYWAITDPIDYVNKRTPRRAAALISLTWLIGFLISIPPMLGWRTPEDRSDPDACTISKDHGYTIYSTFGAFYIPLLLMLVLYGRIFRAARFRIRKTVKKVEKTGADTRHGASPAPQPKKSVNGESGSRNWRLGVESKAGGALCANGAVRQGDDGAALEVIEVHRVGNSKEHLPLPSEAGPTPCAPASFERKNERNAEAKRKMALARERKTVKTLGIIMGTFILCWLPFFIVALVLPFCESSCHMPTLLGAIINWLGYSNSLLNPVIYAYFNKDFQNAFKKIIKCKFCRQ
SMILES,pKi 5HT1a [1],pKi α2c [2],pKi D3 [3],"Food intake, NPY + compound [4] [g]"
Cl.Cl.Nc1ccccc1S(=O)(=O)NC[C@H]1CC[C@H](CNCC2CCc3ccccc3C2)CC1 (mixture of isomers) [Compound 22],6.56,7.15,,
Cl.O=S(=O)(NC[C@H]1CC[C@H](CNCC2CCc3ccccc3C2)CC1)c1cccc2ccccc12 (mixture of isomers) [Compound 19],5.54,,6.69,1.5 ± 0.6
Cl.O=[N+]([O-])c1ccccc1S(=O)(=O)NC[C@H]1CC[C@H](CNCC2CCc3ccccc3C2)CC1 (mixture of isomers) [Compound 20],,7.39,6.35,
